# Experimental data published in patent EP0888346B1, “CORALYNE ANALOGS AS TOPOISOMERASE INHIBITORS” (RUTGERS, THE STATE UNIVERSITY OF NEW JERSEY, priority 1996, dated 1997).
# Values joined by “and” are separate entries in the source; they are usually repeats but may differ in a detail not shown here. Identical values can stand only once. Like-named read-outs stand apart in the source and are kept apart here.
# Columns and labels:
# human topoisomerase I = target: T1, human topoisomerase I (Homo sapiens, UniProt P11387); assay: Topo I cleavage assay (plasmid YEpG DNA); assay type: biochemical
# T1 construct: 15 amino acid vector-derived fusion (pET-11a leader); made in house; host or cells: E. coli BL21(DE3)
# T1 sequence (P11387 1-765): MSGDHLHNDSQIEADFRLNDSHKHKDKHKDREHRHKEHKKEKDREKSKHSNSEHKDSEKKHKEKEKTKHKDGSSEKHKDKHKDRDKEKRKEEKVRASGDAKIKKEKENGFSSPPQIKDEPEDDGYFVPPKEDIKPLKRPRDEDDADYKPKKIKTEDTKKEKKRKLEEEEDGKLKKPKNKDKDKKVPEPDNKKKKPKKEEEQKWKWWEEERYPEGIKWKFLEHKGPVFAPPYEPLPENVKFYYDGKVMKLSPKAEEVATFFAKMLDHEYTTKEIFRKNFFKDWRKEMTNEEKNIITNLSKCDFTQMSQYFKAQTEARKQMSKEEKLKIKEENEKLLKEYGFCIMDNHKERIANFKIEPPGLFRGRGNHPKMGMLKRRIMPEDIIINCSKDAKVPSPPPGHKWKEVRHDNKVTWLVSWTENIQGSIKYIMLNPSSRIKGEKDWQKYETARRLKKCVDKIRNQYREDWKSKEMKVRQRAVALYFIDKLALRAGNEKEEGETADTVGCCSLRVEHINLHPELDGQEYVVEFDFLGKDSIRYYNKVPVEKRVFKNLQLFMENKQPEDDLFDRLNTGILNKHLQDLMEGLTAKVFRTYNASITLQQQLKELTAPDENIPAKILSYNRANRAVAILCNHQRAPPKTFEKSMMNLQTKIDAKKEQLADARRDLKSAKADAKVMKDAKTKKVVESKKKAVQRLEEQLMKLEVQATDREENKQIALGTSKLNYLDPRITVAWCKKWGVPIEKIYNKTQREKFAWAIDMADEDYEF
# Excerpt: To obtain large quantity of human topoisomerase I, the human topoisomerase I cDNA was cloned into the pET-11a vector, in which transcription of the cDNA is under the control of the inducible T7 promoter (Studier et al., Methods in Enzymol., Vol. 185:60-89, San Diego: Academic Press (1990)). Briefly, a 3.4 kb DNA fragment containing the entire coding sequence of human topoisomerase I and approximately 1 kb of untranslated region downstream of the stop codon was isolated from the plasmid YCpGAL1-hTOP1 (Bjornsti et al., Cancer Res. 49:6318-6323 (1989)) by cutting at the BamHI and EcoRI sites. The vector pET-11a was cut with the same restriction enzymes, dephosphorylated and ligated to the insert in the proper reading-frame downstream of the vector cloning site. The ligation mixture was used to transform E. coli, the correct clone pET1B was isolated (see figure 2A for the map) and its identity confirmed by restriction mapping. Since the translational start in pET is positioned at an upstream NdeI site, the expressed topoisomerase I has a 15 amino acid fusion at its N-terminus. pET1B was then transformed into E. coli BL21(DE3), and, upon induction with 0.4 mM IPTG for 1 hour, the bacterial lysate was analyzed by 10 % SDS-PAGE. Expression was confirmed by Western blotting using rabbit antibodies against human topoisomerase I. Isolation of the expressed protein was done by a simple procedure. Briefly, E. coli cells were lysed by repeated sonic bursts. The sonic extract was made in 1 M NaCl and 6% polyethylene glycol (PEG) to remove nucleic acids. The PEG supernatant was chromatographed directly on a hydroxyapatite column. Expressed human DNA topoisomerase I was eluted at the 0.6 M potassium phosphate step. The eluted enzyme was dialyzed against 50% glycerol, 30 mM potassium phosphate (pH 7.0), 1 mM dithiothreitol (DTT) and 0.1 mM EDTA and stored at -20°C.
# Cleavage assays for the recombinant topoisomerases I and calf thymus topoisomerases I and II were done as described (Liu et al., J. Biol. Chem. 258:15365-15370 (1983)). The plasmid YEpG DNA used for the cleavage assays was prepared and labeled at its 3'-end using the published procedures.
# [1] = test system: Human lymphoblast RPMI 8402 cells; assay: MTT-microtiter plate tetrazolinium cytotoxicity assay (MTA); assay type: cell-based; settings: Homo sapiens, RPMI 8402, 96 h
# Excerpt: The results were plotted and the IC50 then measured.
# [2] = test system: yeast cells expressing functional yeast topoisomerase I; assay: Yeast cytotoxicity assay, strain expressing wild-type yeast topo I; assay type: cell-based, S. cerevisiae; settings: plates with 1 µM drug (camptothecin 0.5 µM), 3 days at 30°C
# Excerpt: It has been established that yeast can survive when topoisomerase I function is obliterated, and that the topoisomerase I poisons only kill cells having a functional topoisomerase I (Bjornsti et al. Cancer Res. 49:6318-6323 (1989)).
# The topoisomerase I-specific in vivo cytotoxicity assay was adapted from Knab et al. (Knab et al., J. Biol. Chem. 268:22322-22330 (1993)). In this system, various topo I genes cloned into the single copy yeast plasmid vector, YCpGAL1 (Knab et al., J. Biol. Chem. 268:22322-22330 (1993)), are expressed under the control of the GAL1 promoter in the JN2-134 strain of S. cerevisiae (MATa, rad52::LEU2, trp1, ade2-1,his7, ura3-52, isel, top1-1, leu2) (Bjornsti et al., Cancer Res. 49:6318-6323 (1989)). The topo I constructs in the vector are, respectively, the wild-type yeast topo I (YCpGAL-ScTOP1), a non-functional yeast topo I where the active site tyrosine-727 is mutated to a phenylalanine (YCpGAL1-Sctop1Y727F) (Knab et al., J. Biol. Chem. 268:22322-22330 (1993)), and the wild type human topoisomerase I (YCpGAL-hTOP1) (Bjornsti et al., Cancer Res. 49:6318-6323 (1989)). To qualitatively test the cytotoxicity and the topo I specificity of the drugs, yeast cells containing the specific plasmid were serially diluted (5-fold) and were grown in dropout medium supplemented with uracil and 2% galactose In addition, the plates contained: A: Control, no drug in the plate; B: Camptothecin (CPT), 0.5 µM; C: Coralyne, 1 µM; D: Methylenedioxy-dihydro-demethyl-coralyne (MDD-Coralyne), 1 µM, and E: Nitidine, 1 µM. The plates were grown for 3 days at 30°C to assess the lethal effect of the different compounds on the various topoisomerase I enzymes expressed in S. cerevisiae.and the drug being tested.
structure (smiles),measurement,setting,value
"CC[C@@]1(O)C(=O)OCc2c1cc1n(c2=O)Cc2cc3ccccc3nc2-1 [CPT, camptothecin, reference compound]","Topo I-mediated DNA cleavage (REC, Relative Effective Concentration)",human topoisomerase I; concentration relative to camptothecin (CPT) = 1 producing the same cleavage on the plasmid DNA,1
same,EC (total cleavage),human topoisomerase I; read-out: concentration giving total cleavage of DNA in the presence of topoisomerase I,0.29 µM and 0.1 µg/mL
same,IC50,[1]; read-out: Cytotoxicity IC50 RPMI,4 nM
same,IC50,[1]; read-out: Cytotoxicity RPMI 8402,3 ng/mL
same,cytotoxicity against yeast cells expressing functional yeast topoisomerase I (in words),[2],quite sensitive
